Experimental data reported in PubChem BioAssay AID2060488 (Molecular Pharmacology Branch, DTP, NCI, 2025).

Tested on: 966289-007-R4-J1-PDC complex spheroid viability
Assay: Anticancer human tumor 966289-007-R4-J1-PDC patient-derived pancreatic adenocarcinoma cell line growth inhibition [GQUAD]
Conditions: for IC50: curve of first compound; for viability, T/C: stronger effect = lower value; active means viability on the fitted dose curve at most 10% of control; inactive means the rest
Procedure, shortened: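 Tumor cells were grown as complex spheroids with HUVEC endothelial cells and mesenchymal stem cells as stroma. G-quadruplex stabilizers were combined with targeted agents over half-log dilutions from near the clinical Cmax, or from 10 microM.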

[1] = second compound 0.0316 µM, first compound 0.0316 µM
[2] = second compound 0.0316 µM, first compound 0.1 µM
[3] = second compound 0.0316 µM, first compound 0.316 µM
[4] = second compound 0.0316 µM, first compound 1 µM
[5] = second compound 0.0316 µM, first compound 3.16 µM
[6] = second compound 0.0316 µM, first compound 10 µM
[7] = second compound 0.1 µM, first compound 0.0316 µM
[8] = second compound 0.1 µM, first compound 0.1 µM
[9] = second compound 0.1 µM, first compound 0.316 µM
[10] = second compound 0.1 µM, first compound 1 µM
[11] = second compound 0.1 µM, first compound 3.16 µM
[12] = second compound 0.1 µM, first compound 10 µM
[13] = second compound 0.316 µM, first compound 0.0316 µM
[14] = second compound 0.316 µM, first compound 0.1 µM
[15] = second compound 0.316 µM, first compound 0.316 µM
[16] = second compound 0.316 µM, first compound 1 µM
[17] = second compound 0.316 µM, first compound 3.16 µM
[18] = second compound 0.316 µM, first compound 10 µM
[19] = second compound 1 µM, first compound 0.0316 µM
[20] = second compound 1 µM, first compound 0.1 µM
[21] = second compound 1 µM, first compound 0.316 µM
[22] = second compound 1 µM, first compound 1 µM
[23] = second compound 1 µM, first compound 3.16 µM
[24] = second compound 1 µM, first compound 10 µM
[25] = second compound 3.16 µM, first compound 0.0316 µM
[26] = second compound 3.16 µM, first compound 0.1 µM
[27] = second compound 3.16 µM, first compound 0.316 µM
[28] = second compound 3.16 µM, first compound 1 µM
[29] = second compound 3.16 µM, first compound 3.16 µM
[30] = second compound 3.16 µM, first compound 10 µM
[31] = second compound 10 µM, first compound 0.0316 µM
[32] = second compound 10 µM, first compound 0.1 µM
[33] = second compound 10 µM, first compound 0.316 µM
[34] = second compound 10 µM, first compound 1 µM
[35] = second compound 10 µM, first compound 3.16 µM
[36] = second compound 10 µM, first compound 10 µM
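Further: spheroids exposed to the agents for seven days before readout.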
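Wherever viability, T/C is given: percent viability relative to DMSO vehicle control wells taken as 100%.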

CC(C)n1c(=O)n(C)c2cnc3cc(F)c(-c4ccc(OCCCN5CCCCC5)nc4)cc3c21 + Cc1[nH]c2ccc(F)cc2c1-c1nc2c3cccnc3c3ncccc3c2[nH]1
> 10000 nM: IC50 (second compound 0.0316 µM) | IC50 (second compound 0.1 µM) | IC50 (second compound 0.316 µM) | IC50 (second compound 1 µM) | IC50 (second compound 3.16 µM) | IC50 (second compound 10 µM)
inactive: viability, T/C [1] 112% | viability, T/C [2] 101% | viability, T/C [3] 110% | viability, T/C [4] 101% | viability, T/C [5] 109% | viability, T/C [6] 82.4% | viability, T/C [7] 104% | viability, T/C [8] 101% | viability, T/C [9] 109% | viability, T/C [10] 105% | viability, T/C [11] 110% | viability, T/C [12] 89.1% | viability, T/C [13] 99.8% | viability, T/C [14] 110% | viability, T/C [15] 106% | viability, T/C [16] 111% | viability, T/C [17] 105% | viability, T/C [18] 85.9% | viability, T/C [19] 104% | viability, T/C [20] 108% | viability, T/C [21] 109% | viability, T/C [22] 109% | viability, T/C [23] 109% | viability, T/C [24] 85.5% | viability, T/C [25] 102% | viability, T/C [26] 107% | viability, T/C [27] 110% | viability, T/C [28] 104% | viability, T/C [29] 105% | viability, T/C [30] 62.2% | viability, T/C [31] 103% | viability, T/C [32] 104% | viability, T/C [33] 107% | viability, T/C [34] 104% | viability, T/C [35] 94.9% | viability, T/C [36] 61.8%

CC1COCCN1c1cc(-c2ccnn2C)c2ccnc(-c3ccn[nH]3)c2n1 (stereo unspecified) + Cc1[nH]c2ccc(F)cc2c1-c1nc2c3cccnc3c3ncccc3c2[nH]1
inactive: viability, T/C [1] 114% | viability, T/C [2] 77.8% | viability, T/C [3] 17.3% | viability, T/C [7] 115% | viability, T/C [8] 73.2% | viability, T/C [9] 17% | viability, T/C [13] 110% | viability, T/C [14] 80.3% | viability, T/C [15] 15.6% | viability, T/C [19] 105% | viability, T/C [20] 78.1% | viability, T/C [21] 21.1% | viability, T/C [25] 94.4% | viability, T/C [26] 39.3% | viability, T/C [31] 96.4% | viability, T/C [32] 28.4%
172 nM: IC50 (second compound 0.316 µM)
79.9 nM: IC50 (second compound 3.16 µM)
170 nM: IC50 (second compound 0.0316 µM)
69.3 nM: IC50 (second compound 10 µM)
active: viability, T/C [4] 5.52% | viability, T/C [5] 4.65% | viability, T/C [6] 3.39% | viability, T/C [10] 6.08% | viability, T/C [11] 4.45% | viability, T/C [12] 3% | viability, T/C [16] 7.15% | viability, T/C [17] 4.49% | viability, T/C [18] 3.06% | viability, T/C [22] 8.54% | viability, T/C [23] 5.16% | viability, T/C [24] 2.92% | viability, T/C [27] 8.27% | viability, T/C [28] 7.24% | viability, T/C [29] 5.24% | viability, T/C [30] 4.9% | viability, T/C [33] 5.29% | viability, T/C [34] 5.42% | viability, T/C [35] 5.48% | viability, T/C [36] 5.5%
161 nM: IC50 (second compound 0.1 µM)
177 nM: IC50 (second compound 1 µM)

CC1COCCN1c1cc(C2(O)CC3CCC(C2)O3)c2cnn(-c3ccn[nH]3)c2n1 (stereo unspecified) + Cc1[nH]c2ccc(F)cc2c1-c1nc2c3cccnc3c3ncccc3c2[nH]1
131 nM: IC50 (second compound 1 µM)
active: viability, T/C [4] 5.11% | viability, T/C [5] 4.75% | viability, T/C [6] 3.95% | viability, T/C [10] 5.55% | viability, T/C [11] 4.82% | viability, T/C [12] 4.44% | viability, T/C [16] 5.9% | viability, T/C [17] 4.9% | viability, T/C [18] 4.84% | viability, T/C [22] 5.99% | viability, T/C [23] 4.35% | viability, T/C [24] 4.34% | viability, T/C [28] 5.99% | viability, T/C [29] 6% | viability, T/C [30] 4.42% | viability, T/C [33] 6.61% | viability, T/C [34] 5.67% | viability, T/C [35] 4.73% | viability, T/C [36] 4.11%
112 nM: IC50 (second compound 0.1 µM)
134 nM: IC50 (second compound 0.316 µM)
50.6 nM: IC50 (second compound 10 µM)
60.9 nM: IC50 (second compound 3.16 µM)
117 nM: IC50 (second compound 0.0316 µM)
inactive: viability, T/C [1] 112% | viability, T/C [2] 55.6% | viability, T/C [3] 13.9% | viability, T/C [7] 111% | viability, T/C [8] 53.8% | viability, T/C [9] 14% | viability, T/C [13] 105% | viability, T/C [14] 63.2% | viability, T/C [15] 11.7% | viability, T/C [19] 98.5% | viability, T/C [20] 61.1% | viability, T/C [21] 14.2% | viability, T/C [25] 81.8% | viability, T/C [26] 25.1% | viability, T/C [27] 11.7% | viability, T/C [31] 71.7% | viability, T/C [32] 18.7%
